From PubChem BioAssay AID1996
Converted amounts (≈) assume the structure as drawn.

settings: buffer; pH 7.4; 200.0 µM

Row | SMILES | solubility kinetic [µg/mL]
1 | COc1ccc2c(C)cc(SCC(=O)NC3CCCCC3)nc2c1 | 1.3 (≈ 3.77 µM)
2 | Cc1cc2ncn(CS(C)(=O)=O)c2cc1C | 34.3 (≈ 144 µM)
3 | CCN(CC)c1ccc(/C=C2\SC(=O)N(C(C)C)C2=O)o1 | 4.1 (≈ 13.3 µM)
4 | CCN(C(=O)CSc1nc(C)c(C)c(C)n1)C1CCS(=O)(=O)C1 (stereo not given) | > 53.6
5 | CC(=O)C(Sc1nccc(-c2cccs2)n1)C(C)=O | 40.5 (≈ 139 µM)
6 | c1nc2ccc(Cc3ccc4nc[nH]c4c3)cc2[nH]1 | 34.3 (≈ 138 µM)
7 | Cc1ccc(NC(=O)N2CCCC2C(=O)NCC2CCCO2)cc1 (stereo not given) | > 49.7
8 | COC(=O)c1sc(-c2ccccc2)cc1NC(=O)C1CC1 | 0.7 (≈ 2.32 µM)
9 | CCCCn1c(=O)c(C(=O)NC(C)c2ccccc2)c(O)c2ccccc21 (stereo not given) | < 0.4
10 | COC(=O)c1ccccc1NC(=O)c1ccc2c(c1)OCCCO2 | 4.1 (≈ 12.5 µM)
11 | CCOC(=O)CSc1nc(-c2ccccc2)ns1 | 6.3 (≈ 22.5 µM)
12 | O=C(c1c(F)cccc1F)N(Cc1cccs1)C1CCCC1 | 30.3 (≈ 94.3 µM)
13 | Cc1ccc(C(=O)NCC(=O)Nc2ccc(F)c(F)c2F)cc1 | 2.3 (≈ 7.14 µM)
14 | O=C(O)C(=O)O.OC1(c2ccccc2)CCNC2CCCCC21 (stereo not given) | > 48.2
15 | Cc1cccc(NC(=O)c2cc(=O)[nH]c3ccccc23)c1 | 3.1 (≈ 11.1 µM)
16 | O=S(=O)(Nc1ccon1)c1ccc(Br)s1 | 31.3 (≈ 101 µM)
17 | Cc1cccc(NC(=O)NCCCCc2ccccc2)c1 | 0.4 (≈ 1.42 µM)
18 | N#Cc1c(-c2ccccc2)[nH]c(=O)[nH]c1=O | > 32
19 | O=C(CCc1ccccc1)Nc1cccnc1 | > 33.9
20 | CCN(Cc1cc(=O)oc2cc(C)ccc12)c1ccccc1 | 2 (≈ 6.82 µM)

Row | SMILES | solubility kinetic [µg/mL]
21 | Nc1nonc1OCCOCCOCCOc1nonc1N | 45.7 (≈ 144 µM)
22 | CC(C)[C@H](NC(=O)c1ccco1)C(=O)OCC(=O)c1ccc(Br)s1 | > 62.1
23 | O=C1CSC(c2ccccn2)N1c1ccc(C(F)(F)F)cc1 (stereo not given) | > 48.6
24 | O=C(CNc1cccc(F)c1)N1CCc2ccccc2C1 | 8.4 (≈ 29.5 µM)
25 | COc1ccc(NCC(=O)N/N=C/C(C)c2ccccc2)cc1 (stereo not given) | > 46.7
26 | Cc1ccccc1SCC(=O)OCC(=O)NCc1ccccc1 | > 49.4
27 | O=C(/C=C/c1cccc(F)c1)N1CCN(c2ccccn2)CC1 | 39.4 (≈ 127 µM)
28 | O=C(CCc1ccccc1)NC1CCCc2ccccc21 (stereo not given) | 19.2 (≈ 68.7 µM)
29 | COc1cccc(C(=O)Nc2cccc(NC(=O)c3cccs3)c2)c1 | 13.5 (≈ 38.3 µM)
30 | COc1ccccc1C(=O)Nc1nsc(-c2ccccc2)n1 | 8.8 (≈ 28.3 µM)
31 | Clc1ccc(CNc2cnccn2)cc1Cl | > 38.1
32 | Cn1c(/C=C/c2cccc([N+](=O)[O-])c2)nc2ccccc2c1=O | < 0.2
33 | CN(C)CCCNc1nc(N)c([N+](=O)[O-])c(NC2CCCCC2)n1 | > 50.6
34 | COc1ccc(OC)c(NC(=O)NC2CCCc3ccccc32)c1 (stereo not given) | 0.7 (≈ 2.14 µM)
35 | Cc1c(C(=O)NNC(=O)c2cccnc2)cccc1[N+](=O)[O-] | > 45
36 | COc1ccc(NC(=O)CCn2cccc2)c(OC)c1 | 36.1 (≈ 132 µM)
37 | O=C(COC(=O)c1ccc[n+]([O-])c1)Nc1ccc([N+](=O)[O-])cc1Cl | > 52.8
38 | Cc1cccc(N2Cc3ccc(Br)cc3C2)c1 | 4.8 (≈ 16.7 µM)
39 | O=C(Cc1c(F)cccc1Cl)Nc1nc2ccccc2s1 | 0.8 (≈ 2.49 µM)
40 | O=C(NCC(=O)N1CCCCC1)c1ccc2ccccc2c1 | > 44.5

Row | SMILES | solubility kinetic [µg/mL]
41 | COc1ccc(C2C(C#N)=C(N)Oc3cc(O)ccc32)cc1C (stereo not given) | 31.5 (≈ 102 µM)
42 | Cc1cccc(C)c1NC(=O)C(=O)NCCc1c[nH]c2ccccc12 | 1.3 (≈ 3.88 µM)
43 | CC(C)CC(OC(=O)c1ccco1)C(=O)NC1CCCC1 (stereo not given) | 41.1 (≈ 140 µM)
44 | O=C(Cc1ccccc1Cl)Nc1nc2ccccc2[nH]1 | 2.6 (≈ 9.1 µM)
45 | CC(C)c1ccc(S(=O)(=O)c2cnc(=S)[nH]c2N)cc1 | 0.9 (≈ 2.91 µM)
46 | CC(C)c1ccc(CN2CCSCC2)cc1 | 1.1 (≈ 4.67 µM)
47 | O=C(Nc1ccc(Br)c(Br)c1)C1CCCO1 (stereo not given) | 38.8 (≈ 111 µM)
48 | O=C(NCCNc1ccccc1[N+](=O)[O-])c1ccccc1F | > 45.5
49 | NC(=O)c1nc(-c2ccccc2)c(-c2ccccc2)[nH]c1=O | > 43.7
50 | Cc1ccc(NC(=O)Nc2cccnc2)cc1Cl | 23.3 (≈ 89 µM)
51 | Cc1nn(-c2ccc(F)cc2)c(C)c1/C=C/C(=O)N1CCNC(=O)C1 | > 51.4
52 | CCOCCCNC(=O)c1cc2c(=O)n3ccccc3nc2s1 | 46.4 (≈ 140 µM)
53 | CCN1CCN(C(=O)C(C)Sc2nc3nc(C)cc(C)n3n2)CC1 (stereo not given) | > 52.3
54 | Cc1cccc(N2CCc3c2nc2ccc(Br)cc2c3N)c1.Cl | 0.6
55 | COc1ccccc1NC(=O)c1c(O)c2ccccc2[nH]c1=O | 1.2 (≈ 3.87 µM)
56 | CC(=O)c1cccc(NC(=O)/C=C/c2ccc(S(=O)(=O)N3CCOCC3)cc2)c1 | 5.1 (≈ 12.3 µM)
57 | COc1ccc(S(=O)(=O)Nc2cc3c4c(c2)CC(=O)N4CCC3)cc1 | 50 (≈ 140 µM)
58 | COc1ccc(C(=O)O)cc1NCc1ccc(C)s1 | > 41.6
59 | O=C(COC(=O)c1ccc([N+](=O)[O-])cc1)NC1CCCC1 | 21.2 (≈ 72.5 µM)
60 | CC1CCCCN1C(=O)CNCC1CCCO1.O=C(O)C(=O)O (stereo not given) | > 49.6
